Data on seven compounds can be found in PMC6199744, “Development of Chemical Proteomics for the Folateome and Analysis of the Kinetoplastid Folateome” (ACS Infectious Diseases, 2018).

Where two headings read alike, the source gives them in different places.

What all share (assay type): binding
Experiment [1] has as its target T1, HeLa cell extract proteins (Homo sapiens, UniProt P55084).
T1 construct: endogenous in cells; host or cells: HeLa cell extract
T1 sequence (P55084 34-474): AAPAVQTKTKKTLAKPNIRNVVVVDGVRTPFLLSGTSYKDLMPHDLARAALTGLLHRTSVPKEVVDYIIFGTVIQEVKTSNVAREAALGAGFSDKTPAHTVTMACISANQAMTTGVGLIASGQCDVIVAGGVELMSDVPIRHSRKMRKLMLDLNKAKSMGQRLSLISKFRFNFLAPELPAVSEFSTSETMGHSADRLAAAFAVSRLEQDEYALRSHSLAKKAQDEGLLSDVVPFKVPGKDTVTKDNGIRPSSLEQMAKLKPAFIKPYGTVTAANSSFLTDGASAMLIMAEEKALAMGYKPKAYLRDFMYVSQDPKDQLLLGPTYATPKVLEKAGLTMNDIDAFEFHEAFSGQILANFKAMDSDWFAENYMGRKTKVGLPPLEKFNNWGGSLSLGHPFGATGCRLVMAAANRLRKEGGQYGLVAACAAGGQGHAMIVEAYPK

For experiment [2], the target named is T2, HeLa cell extract proteins (Homo sapiens, UniProt Q9P2E9).
T2 construct: endogenous in cells; host or cells: HeLa cell extract
T2 sequence (Q9P2E9 1-1410): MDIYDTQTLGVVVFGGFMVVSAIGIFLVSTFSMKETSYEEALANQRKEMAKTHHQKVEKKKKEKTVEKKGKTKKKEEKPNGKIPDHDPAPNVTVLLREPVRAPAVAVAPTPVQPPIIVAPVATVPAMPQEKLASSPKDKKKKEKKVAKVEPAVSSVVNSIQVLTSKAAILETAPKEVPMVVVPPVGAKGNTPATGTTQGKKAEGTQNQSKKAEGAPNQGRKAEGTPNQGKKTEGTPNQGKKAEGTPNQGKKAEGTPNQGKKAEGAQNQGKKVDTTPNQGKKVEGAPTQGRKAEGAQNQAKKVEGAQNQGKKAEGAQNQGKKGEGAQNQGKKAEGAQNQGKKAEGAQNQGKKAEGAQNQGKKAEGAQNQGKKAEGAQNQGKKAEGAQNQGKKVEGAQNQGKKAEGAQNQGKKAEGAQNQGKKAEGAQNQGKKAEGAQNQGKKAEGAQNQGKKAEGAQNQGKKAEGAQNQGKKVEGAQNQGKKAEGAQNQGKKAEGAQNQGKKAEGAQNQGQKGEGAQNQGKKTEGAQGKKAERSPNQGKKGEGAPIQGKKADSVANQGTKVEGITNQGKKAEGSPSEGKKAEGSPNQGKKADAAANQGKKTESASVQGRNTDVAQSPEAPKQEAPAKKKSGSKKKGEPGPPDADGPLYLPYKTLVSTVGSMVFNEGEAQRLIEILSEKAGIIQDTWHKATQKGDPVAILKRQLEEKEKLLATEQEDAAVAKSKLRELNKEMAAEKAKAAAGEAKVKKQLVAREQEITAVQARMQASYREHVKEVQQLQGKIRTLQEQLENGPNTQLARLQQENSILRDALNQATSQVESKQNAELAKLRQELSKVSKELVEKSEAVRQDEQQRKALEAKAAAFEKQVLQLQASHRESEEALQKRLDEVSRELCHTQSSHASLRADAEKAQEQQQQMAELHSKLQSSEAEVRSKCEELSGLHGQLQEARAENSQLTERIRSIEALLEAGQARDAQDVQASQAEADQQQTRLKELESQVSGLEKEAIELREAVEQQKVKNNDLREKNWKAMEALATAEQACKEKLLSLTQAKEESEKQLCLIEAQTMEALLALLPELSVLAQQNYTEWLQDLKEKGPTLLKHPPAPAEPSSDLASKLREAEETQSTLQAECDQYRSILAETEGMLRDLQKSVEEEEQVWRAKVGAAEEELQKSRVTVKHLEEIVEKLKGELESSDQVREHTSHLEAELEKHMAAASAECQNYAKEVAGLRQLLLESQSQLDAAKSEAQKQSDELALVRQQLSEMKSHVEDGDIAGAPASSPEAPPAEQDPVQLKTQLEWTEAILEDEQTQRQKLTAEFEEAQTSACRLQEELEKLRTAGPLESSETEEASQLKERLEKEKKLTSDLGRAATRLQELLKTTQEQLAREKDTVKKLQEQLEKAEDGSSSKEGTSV

Experiment [3] deals with T3, HeLa cell extract proteins (Homo sapiens, UniProt O75600).
T3 construct: endogenous in cells; host or cells: HeLa cell extract
T3 sequence (O75600 22-419): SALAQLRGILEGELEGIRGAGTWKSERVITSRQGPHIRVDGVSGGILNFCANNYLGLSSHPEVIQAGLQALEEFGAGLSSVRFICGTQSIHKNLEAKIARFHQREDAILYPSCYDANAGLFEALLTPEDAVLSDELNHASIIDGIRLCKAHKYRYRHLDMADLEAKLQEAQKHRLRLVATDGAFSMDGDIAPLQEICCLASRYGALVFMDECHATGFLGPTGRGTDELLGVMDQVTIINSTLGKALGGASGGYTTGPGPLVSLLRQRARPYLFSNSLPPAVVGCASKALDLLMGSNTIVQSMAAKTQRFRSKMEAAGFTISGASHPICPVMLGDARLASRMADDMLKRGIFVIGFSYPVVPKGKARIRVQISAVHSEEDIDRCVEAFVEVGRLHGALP
The note with it: protein GCAT; HeLa.

The target in experiment [4] is T4, HeLa cell extract proteins (Homo sapiens, UniProt P48556).
T4 construct: endogenous in cells; host or cells: HeLa cell extract
T4 sequence (P48556 1-350): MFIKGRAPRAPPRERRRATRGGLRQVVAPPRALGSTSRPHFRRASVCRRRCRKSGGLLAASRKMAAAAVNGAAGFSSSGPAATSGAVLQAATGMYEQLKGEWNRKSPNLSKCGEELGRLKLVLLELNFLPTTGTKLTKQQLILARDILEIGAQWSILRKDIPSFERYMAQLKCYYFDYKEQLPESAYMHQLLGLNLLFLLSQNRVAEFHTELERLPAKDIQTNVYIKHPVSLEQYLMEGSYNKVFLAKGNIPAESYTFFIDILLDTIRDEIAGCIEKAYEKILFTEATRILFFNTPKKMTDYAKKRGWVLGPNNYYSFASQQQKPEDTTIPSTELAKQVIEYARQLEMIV
The note with it: captured protein PSMD8; HeLa.

`Nc1nc2c(c(=O)[nH]1)N(C=O)C(CNc1ccc(C(=O)N[C@@H](CCC(=O)O)C(=O)O)cc1)CN2` (some centres unmarked) [LEU, leucovorin]: the “fold changes relative to vehicle control” value came out at 0.85 in experiment [1] (HeLa, protein HADHB) and 1.08 in experiment [2] (HeLa, protein RRBP1).
As to `Nc1nc2[nH]cc(CCc3ccc(C(=O)N[C@@H](CCC(=O)O)C(=O)O)cc3)c2c(=O)[nH]1` [PTX, pemetrexed], the results for the “fold changes relative to vehicle control” value in experiment [1] and in experiment [2] were 0.94 and 1.03, respectively.
As to `CCCCCCOc1ccc(Cc2cnc(N)nc2N)cc1` [compound 1], the entries for the “fold changes relative to vehicle control” value in experiment [3] and in experiment [4] were 0.95 and 0.89, respectively.
The corresponding values for `CCCCCCOc1cccc(Cc2cnc(N)nc2N)c1` [compound 2] are 1.14 and 1.08.
The corresponding values for `Nc1nc2cccc(-c3ccccc3)c2n1Cc1ccc(Cl)c(Cl)c1` [compound 3] are 1.03 and 0.78.
On to `NCCOCCOCC(=O)Nc1nc2ncc(CNc3ccc(C(=O)NC(CCC(=O)O)C(=O)O)cc3)nc2c(=O)[nH]1` (centres unmarked) [compound 6], for which the “fold changes relative to vehicle control” value in experiment [1] (HeLa, protein HADHB) was 1.12; in experiment [2] (HeLa, protein RRBP1), 1.35.
On the same counts, the results for `NCCCNc1ccc(C(=O)NC(CCC(=O)O)C(=O)O)cc1` (centres unmarked) [compound 7] are 1.04 and 1.
